# Experiments:
# [1] = system: colon cancer strain highly metastasizable to liver (MOUSE COLON 26); assay: Inhibition of metastasis of colon cancer to liver; format: in vivo, BALB/c mouse; details: for Number of visible tumor tubers (average ± SD): liver
# Protocol: The abdomen of a BALB/c mouse was sectioned, and 2 × 10^4 cells of a colon cancer strain highly metastasizable to liver (MOUSE COLON 26) were injected into the portal vein. Zeaxanthin (4 µg/mouse in Test Example 1; 40 µg/mouse in Test Example 2; 400 µg/mouse in Test Example 3) and all-trans retinoic acid (ATRA) as a positive control were orally administered everyday for 5 consecutive days after the inoculation with tumor cells and then the administration was discontinued for 2 days. The cycle of the 5-day administration and the 2-day discontinuation was repeated twice. Twenty days later, the mouse was sacrificed, and the number of visible tumor tubers in the liver was counted. In Table 2, the mark "*" indicates a significant difference when p < 0.005 (Whitney's U-test).
# lung cancer = assay: Inhibition of carcinogenesis (lung), 4-nitroquinoline-1-oxide initiator / glycerin promoter; format: in vivo, ddY mice
# Protocol: As a carcinogenesis initiator, 4-nitroquinoline-1-oxide dissolved in a solution of olive oil and cholesterol mixed in the ratio of 20:1 was administered subcutaneously in a single dose to ddY mice (a control group of 15 mice and a test group of 15 mice) in an amount of 10 mg/3.3ml/kg weight. Four weeks after administration, an 8% water solution of glycerin as a carcinogenesis promoter was given to the mice of the control group as drinking water for 25 weeks in a manner such that they could take it freely. (The duration of carcinogenesis promotion was 25 weeks).
# In a manner similar to that for the control group, the carcinogenesis initiator was subcutaneously administered to the mice of the test group, and 4 weeks after the administration, an 8% water solution of glycerin as a carcinogenesis promoter was given to the mice of the test group as drinking water for 25 weeks in a manner such that they could take it freely, while zeaxanthin suspended in a liquid mixture of olive oil and "Tween 80" was forcibly administered to the mice of the test group 3 times a week throughout the 25-week duration of carcinogenesis promotion in an amount of 0.2 g per mouse per administration.
# In addition, food and drinking water was given to the mice in a manner such that they could take it freely. Twenty five weeks after the start of the administration of zeaxanthin, that is, after the duration of carcinogenesis promotion was completed, the mice of both the control group and the test group were sacrificed, and the number of mice in which lung cancer occurred, and the average number of tumors were counted.
# (§1) In Table 4, those values in parentheses indicate values obtained by dividing the number of mice in each group in which lung cancer occurred by the total number of mice in each group. The average number of tumors was obtained by dividing the total number of tumors in all mice in each group by the total number of mice in each group.
# [2] = system: Naturally Occurring Hepatoma; assay: Carcinogenesis-inhibiting effect with regard to naturally occurring hepatoma; format: in vivo, C3H/He female mice
# Protocol: C3H/He female mice (control group: 14 mice; test group: 12 mice), in which hepatoma is known to occur naturally, were allowed to freely take food and water for 40 weeks. For the mice of the test group, 20 mg zeaxanthin (having a purity of 98.5%) which was obtained in a manner similar to that of the above example of production of zeaxanthin was suspended in 1 ml dimethyl sulfoxide (DMSO), and thereafter the suspension was added to the drinking water of the test so that the final concentration of zeaxanthin was 0.005%. On the other hand, for the control group, only DMSO in the same amount was added to the drinking water. At the end of the 40 weeks, both groups of mice were sacrificed, and the number of tumors which occurred in the liver was counted.
# skin cancer = assay: Inhibition of carcinogenesis (skin), 7,12-dimethylbenz[a]anthracene / TPA; format: in vivo, ICR male mouse
# Protocol: The back of an ICR male mouse (control group: 15 mice; test group: 14 mice) was shaved, and 100 µg of 7,12-dimethylbenz[a]anthracene in 100 µl of acetone was applied thereto. Two days after the application, application of 1.6 nmol of 12-O-tetradecanoylphorbal-13-acetate (TPA) in 100 µl of acetone was begun and repeated twice a week. The duration of carcinogenesis promotion was set to 15 weeks.
# An hour before every TPA application, 160 nmol zeaxanthin (which makes the molar ratio of TPA to zeaxanthin 1:100) in 100 µl of acetone was applied to the mice of test group. After the 15-week duration of carcinogenesis promotion, the ratio of occurrence of skin tumor and the average number of tumors were measured.
# as §1, with “5,” for “4,”, “skin” for “lung”
# [3] = Acute toxicity test on mice; parameters: species or system mouse (ICR male); details: mouse, in vivo; oral by gastric probe, 1000 or 2000 mg/kg, n=3, 7 days observation; approximate, estimated from survival rate
# Protocol: Using a gastric probe, zeaxanthin (having a purity of 98.5%) was forcibly orally administered to each mouse (ICR male weighing 20∼25 g, n=3) in an amount of 1000 or 2000 mg/kg. After the oral administration, the mice were reared in a cage for 7 days to observe the number of deaths and general conditions. An approximate median lethal dose (LD50, in mg/kg) was estimated from the survival rate of the mice after observation.
# B16-BL6 melanoma cells = assay: Inhibition of invasion of basement membrane (Transwell chamber); format: cell-based; details: 4 hours
# Protocol: The action mechanism of zeaxanthin for inhibiting metastasis of colon cancer to the liver in Example 2 was examined using a Transwell chamber.
# A chamber which is separated into two layers (upper and lower layers) by a membrane filter having pores of 8 µm in diameter was used, the upper surface of the filter being coated with 5 µg of matrigel (a substrate for restructuring a basement membrane), and the lower surface being coated with 1 µg of fibronectin. B16-BL6 melanoma cells having a cell density of […] were added to the upper layer of the chamber, and were incubated in a 5%-CO2 incubator at 37°C for 4 hours in the presence of 0.05∼500 µM of zeaxanthin. After the incubation, the number of cells which invaded the surface of the lower part of the filter and shifted thereto were counted using an optical microscope. […]
# [4] = from average number of tumors, test group versus control group
smiles,measurement,setting,value
"CC1=C(/C=C/C(C)=C/C=C/C(C)=C/C(=O)O)C(C)(C)CCC1 [ATRA, all-trans retinoic acid, reference compound]",Number of visible tumor tubers (average ± SD),"[1]; positive control, orally, dose not given, twenty days later, * p < 0.005",0.83 ± 1.17*
same,Average weight of liver,"[1]; positive control, orally, dose not given, twenty days later",0.92 g
CC1=C(/C=C/C(C)=C/C=C/C(C)=C/C=C/C=C(C)/C=C/C=C(C)/C=C/C2=C(C)C[C@@H](O)CC2(C)C)C(C)(C)C[C@H](O)C1 [zeaxanthin],Average number of tumors,"lung cancer; 0.2 g per mouse per administration, 3 times a week, 25 weeks (control 1.40)",0.38
same,Number of mice in which lung cancer occurred (divided by total number of mice),"lung cancer; 0.2 g per mouse per administration, 3 times a week, 25 weeks (control 73%)",33%
same,Number of mice in which lung cancer occurred,"lung cancer; 0.2 g per mouse per administration, 3 times a week, 25 weeks, 15 mice (control 11 of 15)",5
same,Inhibition ratio of carcinogenesis,lung cancer; [4],73%
same,inhibition rate,"[2]; test group versus control group, 40 weeks",95%
same,Number of mice in which tumor occurred (percentage),"[2]; zeaxanthin 0.005% in drinking water, 40 weeks, 12 mice (control 35.7%)",8.3%
same,Number of mice in which tumor occurred,"[2]; zeaxanthin 0.005% in drinking water, 40 weeks, 12 mice, liver tumors (control 5 of 14)",1
same,Average number of tumors,"[2]; zeaxanthin 0.005% in drinking water, 40 weeks, liver (control 1.75)",0.08
same,Number of visible tumor tubers (average ± SD),"[1]; 4 µg/mouse orally, 5 days on / 2 days off, cycle repeated twice, twenty days later (no administration 12.25 ± 6.13)",6.86 ± 2.27
same,Average weight of liver,"[1]; 4 µg/mouse orally, twenty days later (no administration 2.16)",1.36 g
same,Number of visible tumor tubers (average ± SD),"[1]; 40 µg/mouse orally, 5 days on / 2 days off, cycle repeated twice, twenty days later, * p < 0.005",1.87 ± 1.96*
same,Average weight of liver,"[1]; 40 µg/mouse orally, twenty days later",0.99 g
same,Number of visible tumor tubers (average ± SD),"[1]; 400 µg/mouse orally, 5 days on / 2 days off, cycle repeated twice, twenty days later, * p < 0.005",1.00 ± 2.13*
same,Average weight of liver,"[1]; 400 µg/mouse orally, twenty days later",0.99 g
same,Average number of tumors,"skin cancer; 160 nmol applied an hour before every TPA application, 15 weeks (control 1.60)",0.86
same,Number of mice in which skin cancer occurred (divided by total number of mice),"skin cancer; 160 nmol applied an hour before every TPA application, 15 weeks (control 47%)",21%
same,Number of mice in which skin cancer occurred,"skin cancer; 160 nmol applied an hour before every TPA application, 15 weeks, 14 mice (control 7 of 15)",3
same,Inhibition ratio of carcinogenesis,skin cancer; [4],46%
same,LD50 at 168 h,[3],> 2000 mg/kg
same,Number of cells which invaded/shifted to basement membrane,"B16-BL6 melanoma cells; 0.05 µM, 37°C (DMSO only 157 ± 21)",137 ± 17
same,Number of cells which invaded/shifted to basement membrane,"B16-BL6 melanoma cells; 0.5 µM, 37°C",119 ± 17
same,Number of cells which invaded/shifted to basement membrane,"B16-BL6 melanoma cells; 5 µM, 37°C, * p < 0.05",109 ± 12*
same,Number of cells which invaded/shifted to basement membrane,"B16-BL6 melanoma cells; 50 µM, 37°C, ** p < 0.005",88 ± 7**
same,Number of cells which invaded/shifted to basement membrane,"B16-BL6 melanoma cells; 500 µM, 37°C, ** p < 0.005",36 ± 12**
"CC1=C(/C=C/C(C)=C/C=C/C(C)=C/C=C/C=C(C)/C=C/C=C(C)/C=C/C2=C(C)CCCC2(C)C)C(C)(C)CCC1 [β-carotene, reference compound]",effect in inhibiting natural carcinogenesis,[2]; experiments conducted in the same manner as in Example 1,no such effect
